Literature values as cited in US4906471A (priority 1989, dated 1990).

Experiments:
[1] = tested on: trasient ischemic attacks; details: in men; prior art statement

Row | Compound | incidence of transient ischemic attacks [1] | side effects at higher doses (patients) | side effects at usual dosage (patients; usual dosage, prior art statement) | side effects / toxic effects (patients) | side effects at low doses (patients)
1 | CC(=O)Oc1ccccc1C(=O)O [Aspirin] | decrease the incidence of trasient ischemic attacks | tinnitus, decreased hearing and vertigo | gastric intolerance | – | –
2 | Neomycin | – | – | – | high toxicity | nausea, abdonimal cramps, diarrhea and malabsorption
3 | colestipol | – | – | – | constipation and bloating sensation; some times hearburn and diarrhea | –
